Measured values: patent US20100113415A1, “EPHA4 RTK INHIBITORS FOR TREATMENT OF NEUROLOGICAL AND NEURODEGENERATIVE DISORDERS AND CANCER” (priority 2008, published 2010)

What was measured:
[1] = system: C2C12 mouse myoblast cell line; test: Scratch wound assay, C2C12 cells; format: cell-based; settings: from AUC of % wound confluence; for IC50: Mus musculus, C2C12, inflexion point, read-out: Scratch Assay C2C12 Cells IP
Experimental: Cell Cultures: C2C12 mouse myoblast cell line (ATCC, VA, USA) was maintained in culture in DMEM media supplemented with 10% fetal bovine serum, 1 mM sodium pyruvate, 1.5 g/L sodium bicarbonate, and 100 IU of penicillin, […] of streptomycin. The cells were then differentiated into myotubes with DMEM supplemented with 2% horse serum for 3 days in 24 well ImageLock™ plate (Essen Instruments, MI, USA).
Scratch wound assays are commonly used to assess the effects of drugs and drug candidates on the cellular proliferation and/or migration associated with wound closing. The IncuCyte™ system (Essen Instruments, MI, USA), an automated imaging platform, provides ongoing, real-time images and quantitative data generated throughout the wound-closing process. Cells were maintained in 24 well ImageLock™ (Essen Instruments, MI, USA) at 37° C. and 95% CO2/5% O2, until a confluent monolayer was achieved. A single scratch wound was then created in each well using the Essen Woundmaker™ (Essen Instruments, MI, USA). It induced a mechanical scratch of the cell monolayer using plastic pipette tips (10-20 μl pipette tips, Eppendorff). Dead cells and other debris produced by the scratch were immediately washed with regular growth media. Cells were then treated with pharmacological agents and were placed into the IncuCyte™ at 37° C. and 95% CO2/5% O2, for two to three days. During this time, the wound area within each well was repeatedly imaged at fixed time intervals (every three hours). The IncuCyte™ scratch wound software generates a “wound mask” for each well. An initial wound mask is created for the first image (at time 0) that clearly delineates the border of the wound. A revised mask is generated for each subsequent image to track wound closure. Wound closure can be automatically monitored using the wound confluence (% confluence). Wound confluence can be graphed over time to evaluate the characteristics of wound closing in the presence of pharmacological agents.
The calculation of the area under the curve (AUC) of the % confluence function of the time gave a quantitative measurement of compounds efficacy on the scratch wound closing. Compounds were titrated in quadruplicate at 5 points concentration starting at 20 μM with a two-fold increment. The percentage of inhibition was calculated from the AUCs at each dose in comparison with the AUCs of the control wells (1% DMSO). Concentration-response curves were represented and the concentrations at the inflexion point (IP) were calculated. The maximum effect was given by the maximum percent inhibition.

[2] = target: T1, Recombinant EphA4 kinase His6-TEV-EphA4 (aa. 615-911) (Homo sapiens, UniProt P54764); test: EphA4 kinase enzymatic assay (TR-FRET); format: biochemical; settings: for IC50: 25 μM ATP, TR-FRET; for inhibition at up to 100 µM: maximum percent inhibition, titration starting at 100 μM, read-out: EphA4 Kinase max inhibition in %
T1 construct: His6-TEV-EphA4 (36 KD) (aa. 615-911); His6 (N); TEV cleavage site (N); made in house; host or cells: Sf9 (baculovirus)
T1 sequence (P54764 615-911): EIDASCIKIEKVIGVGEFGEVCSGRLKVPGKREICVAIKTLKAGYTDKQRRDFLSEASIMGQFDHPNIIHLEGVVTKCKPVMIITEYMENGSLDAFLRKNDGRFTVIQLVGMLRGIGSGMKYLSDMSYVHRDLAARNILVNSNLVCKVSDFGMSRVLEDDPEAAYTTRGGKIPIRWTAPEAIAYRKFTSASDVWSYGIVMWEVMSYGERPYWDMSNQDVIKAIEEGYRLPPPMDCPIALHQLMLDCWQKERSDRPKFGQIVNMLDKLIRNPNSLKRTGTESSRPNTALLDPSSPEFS
Experimental: Recombinant EphA4 kinase His6-TEV-EphA4 (36 KD) (aa. 615-911) was expressed in Sf9 using baculovirus expression system. Hi-tagged protein was purified by high performance liquid chromatography in two step, using a His Trap HP column and a heparin column. The potency of compounds to inhibit EphA4 kinase phosphorylation was measured by an enzymatic assay based on time resolved fluorescence energy transfer assay format (TR-FRET), using Eu-W1024 anti-pTyr antibody (Perkin Elmer, USA) as a donor and SureLight APC (Perkin Elmer, USA) as an acceptor.
Biotinylated Poly(Glu Tyr) peptide (50 nM) was incubated in 384-well with 25 μM ATP (Sigma) and 10 ng EphA4 kinase in NEBuffer (New England Biolabs) for 60 minutes at rt. The reaction was stopped by 15 mM of EDTA solution for 10 minutes at rt. The detection mixture containing 0.5 nM Eu-W1024 anti-pTyr antibody (Perkin Elmer, USA) and 50 nM SureLight APC (Perkin Elmer, USA) was added to the wells and the plate was incubated for 30 min at rt, while protected from light. Energy transfer signal was measured using a Victor 2V (excitation filter 340, emission filter 615 and 665, delay time 50 μs). Results were expressed as ratios of the absorbencies 665/615.
Compounds were titrated in duplicate at 11 points concentration starting at 100 μM with a 3 fold increment. Compounds were diluted in DMSO. […] Percentage inhibition for each compound was then calculated based on the value of the 100% inhibition. Concentration-response curves were represented and the concentrations for 50% inhibition (IC50) were calculated.

SMILES | IC50 [1] [µM] | Scratch Assay C2C12 Cells max inhibition in % [1] [%] | IC50 [2] [µM] | inhibition at up to 100 µM [2] [%]
CC1CCc2c(-c3ccccc3Cl)nc3[nH]nc(N)c3c2C1 (centres unmarked) [Example 63] | 3.1 | 46 | 2.1 | 99
Cc1ccccc1-c1nc2[nH]nc(N)c2c2c1CCC(C)(C)C2 [Example 67] | 0.5 | 78 | 1.5 | 100
